{
  "source": "patent US8324427B2",
  "about": "“Substances analogous to MK8383 and agricultural and horticultural disease control agents” (Meiji Seika Kaisha, Ltd., priority 2008, dated 2012)",
  "key": {"[1]": {"test": "Evaluation of photostability (residual ratio after exposure to light)", "type": "physicochemical", "settings": "dry film exposed to sunlight lamp 24 hr, 25° C., humidity 60%, 30,000 lux, UV 300 to 400 μW/cm^2; HPLC; 0 hr = 100%", "description": "The compounds obtained in Examples 1 to 3 were dissolved in acetone, and the concentration of the compounds was adjusted to 200 μg/mL (100 μg/mL for the compound of Example 3) to give test solutions. The photostability was determined by measuring the residual ratio of compound after exposure to light. The residual ratio was calculated by the following method. The test solution (500 μL) was dispensed in a glass Petri dish having a diameter of 5 cm, and the solvent was removed by evaporation under light shielding conditions to form a dry film. The dry film was exposed to a sunlight lamp within a chamber (temperature 25° C., humidity 60%) and was recovered 24 hr after the start of the exposure. The exposed film was washed with 500 μL of methanol and was analyzed by HPLC (manufactured by Nihon Waters K.K.). The residual ratio (concentration ratio after the elapse of each hour when the residual ratio at 0 hr was presumed to be 100%) was calculated by regarding the peak area as the concentration of the compound."}, "[2]": {"tested_on": "Botrytis cinerea", "test": "Evaluation of control effect (preventive value) on cabbage leaf discs", "type": "in vivo", "settings": "100 ppm test solution sprayed on cabbage leaf discs; Botrytis cinerea spore inoculation; three days after the infection", "description": "The compounds obtained in Examples 1 to 3 were dissolved in acetone to bring the concentration of the compounds to 1 mg/mL. Ten-fold diluted Neoesterin (manufactured by KUMIAI CHEMICAL INDUSTRY CO., LTD.) (1 μL) was added to 20 μL of the solutions. Further, 180 μL of deionized water was added thereto to regulate the concentration to 100 ppm to prepare test solutions. The control effect was measured by measuring the preventive value of each of the test solutions. The preventive value was calculated by the following method. At the outset, leaves cut by a leaf punch off from the leaves at the third and fourth stages of cabbage were allowed to stand still on a multi-well plate. An appropriate amount of the test solution was sprayed followed by air drying. Next, a spore suspension (2.0×10^5 cells/mL) of Botrytis cinerea was prepared as an inoculating microorganism liquor and was inoculated by spraying in an amount of 20 mL per 7 to 10 multi-well plate. Infection with Botrytis cinerea was carried out in a light shielding chamber (temperature 21° C., humidity about 100%), and the preventive value was calculated three days after the infection. […] 0; No pathogenesis was found. 1; Slight pathogenesis was found. 2; Control effect was found as compared with untreated plot, although diseases were developed. 3; Phathogenesis equivalent to that in untreated plot was found. [formula]"}, "[3]": {"tested_on": "Leptosphaeria nodorum", "test": "Antimicrobial activity test (extension of hypha)", "type": "cell-based", "set-up": "key to the marks not given beside the values", "settings": "final concentration 12.5 ppm, 3 days"}, "[4]": {"tested_on": "Cercospora beticola", "test": "Antimicrobial activity test (extension of hypha)", "type": "cell-based", "set-up": "key to the marks not given beside the values", "settings": "final concentration 12.5 ppm, 3 days"}, "[5]": {"tested_on": "Pyricularia oryzae", "type": "cell-based", "set-up": "key to the marks not given beside the values", "settings": "final concentration 12.5 ppm, 3 days"}, "[6]": {"tested_on": "Rhizoctonia solani", "test": "Antimicrobial activity test (extension of hypha)", "type": "cell-based", "set-up": "key to the marks not given beside the values", "settings": "final concentration 12.5 ppm, 3 days"}, "[7]": {"tested_on": "Botrytis cinerea", "test": "Antimicrobial activity test (extension of hypha)", "type": "cell-based", "set-up": "key to the marks not given beside the values", "settings": "final concentration 12.5 ppm, 3 days"}, "[8]": {"tested_on": "Alternaria kikutiana", "test": "Antimicrobial activity test (extension of hypha)", "type": "cell-based", "set-up": "key to the marks not given beside the values", "settings": "final concentration 12.5 ppm, 3 days"}, "[9]": {"tested_on": "Colletotrichum lagenarium", "test": "Antimicrobial activity test (extension of hypha)", "type": "cell-based", "set-up": "key to the marks not given beside the values", "settings": "final concentration 12.5 ppm, 3 days"}},
  "data": [
    {"smiles": "C/C=C(\\C)[C@H]1[C@@H](/C=C/C=C/C(=O)O)[C@H]2[C@@H](C[C@@H]1C)[C@@H](O)CC[C@@H]2C", "note": "[Compound of Example 2, (2E,4E)-5-{(1S,4S,4aS,5S,6R,7S,8aR)-6-[(E)-but-2-en-2-yl]-decahydro-1-hydroxy-4,7-dimethylnaphthalen-5-yl}penta-2,4-dienoic acid]", "values": [
      {"measurement": "Residual ratio after 24 hr", "setting": "[1]", "value": 108, "unit": "%"},
      {"measurement": "Preventive value", "setting": "[2]", "value": 100}
    ]},
    {"smiles": "C/C=C(/C)[C@H]1[C@@H](/C=C/C=C/C(=O)O)[C@H]2[C@@H](C[C@@H]1C)[C@@H](O)CC[C@@H]2C", "note": "[Compound of Example 3, (2E,4E)-5-{(1S,4S,4aS,5S,6R,7S,8aR)-6-[(Z)-but-2-en-2-yl]-decahydro-1-hydroxy-4,7-dimethylnaphthalen-5-yl}penta-2,4-dienoic acid]", "values": [
      {"measurement": "Inhibition of extension", "setting": "[3]", "value": "++"},
      {"measurement": "Inhibition of extension", "setting": "[4]", "value": "+++"},
      {"measurement": "Inhibition of extension", "setting": "[5]", "value": "++"},
      {"measurement": "Inhibition of extension", "setting": "[6]", "value": "+++"},
      {"measurement": "Inhibition of extension", "setting": "[7]", "value": "+++"},
      {"measurement": "Residual ratio after 24 hr", "setting": "[1]", "value": 95, "unit": "%"},
      {"measurement": "Inhibition of extension", "setting": "[8]", "value": "++"},
      {"measurement": "Inhibition of extension", "setting": "[9]", "value": "++"},
      {"measurement": "Preventive value", "setting": "[2]", "value": 100}
    ]},
    {"smiles": "C/C=C(\\C)[C@H]1[C@@H](/C=C/C=C/C(=O)O)[C@H]2[C@@H]([C@H]3C[C@]31C)[C@@H](O)CC[C@@H]2C", "note": "[Compound of Example 1, (2E,4E)-5-{(1aR,2R,3S,3aS,4S,7S,7aS,7bR)-2-[(E)-but-2-en-2-yl]-decahydro-7-hydroxy-1a,4-dimethyl-1H-cyclopropa[a]naphthalen-3-yl}penta-2,4-dienoic acid]", "values": [
      {"measurement": "Residual ratio after 24 hr", "setting": "[1]", "value": 100, "unit": "%"},
      {"measurement": "Preventive value", "setting": "[2]", "value": 92}
    ]}
  ]
}
